For one assay, the target named is CBC-NELF-E 244–380 (Homo sapiens, UniProt P52298). Nature of the assay: ITC, m^7GTP titrated to CBC saturated with NELF-E 244–380. Type of assay: binding. The text has this:
Supplementary Figure 7. Influence of ARS2 and NELF-E on m7GTP binding to CBC.
Representative isothermal titration calorimetry data, presented as in the caption to Figure 1C,
allowing determination of the affinity of CBC to m7GTP in the absence (left) or in the
presence of bound ARS2827-871 (middle) or NELF-E244-380 (right). CBC or CBC saturated
with 2.2 molar excess of ARS2827-871 or NELF-E244-380 in the sample cell was titrated by
m7GTP. KD values represent the average from at least two independent experiments (see […]
On the technique in general: In ITC the heat of successive injections is recorded.

For the next assay, the target named is T1, CBC (6 mutations) (Homo sapiens, UniProt P52298, D107R/Y50A/Y89A).
T1 sequence (P52298 1-156 Y50A/Y89A/D107R): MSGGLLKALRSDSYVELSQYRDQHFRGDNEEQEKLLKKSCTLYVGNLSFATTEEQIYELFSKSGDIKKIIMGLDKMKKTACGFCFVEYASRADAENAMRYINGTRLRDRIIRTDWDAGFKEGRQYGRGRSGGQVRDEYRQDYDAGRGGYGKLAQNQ
T1 sequence (Q09161 20-790 Y461A/R610E/H651A partner): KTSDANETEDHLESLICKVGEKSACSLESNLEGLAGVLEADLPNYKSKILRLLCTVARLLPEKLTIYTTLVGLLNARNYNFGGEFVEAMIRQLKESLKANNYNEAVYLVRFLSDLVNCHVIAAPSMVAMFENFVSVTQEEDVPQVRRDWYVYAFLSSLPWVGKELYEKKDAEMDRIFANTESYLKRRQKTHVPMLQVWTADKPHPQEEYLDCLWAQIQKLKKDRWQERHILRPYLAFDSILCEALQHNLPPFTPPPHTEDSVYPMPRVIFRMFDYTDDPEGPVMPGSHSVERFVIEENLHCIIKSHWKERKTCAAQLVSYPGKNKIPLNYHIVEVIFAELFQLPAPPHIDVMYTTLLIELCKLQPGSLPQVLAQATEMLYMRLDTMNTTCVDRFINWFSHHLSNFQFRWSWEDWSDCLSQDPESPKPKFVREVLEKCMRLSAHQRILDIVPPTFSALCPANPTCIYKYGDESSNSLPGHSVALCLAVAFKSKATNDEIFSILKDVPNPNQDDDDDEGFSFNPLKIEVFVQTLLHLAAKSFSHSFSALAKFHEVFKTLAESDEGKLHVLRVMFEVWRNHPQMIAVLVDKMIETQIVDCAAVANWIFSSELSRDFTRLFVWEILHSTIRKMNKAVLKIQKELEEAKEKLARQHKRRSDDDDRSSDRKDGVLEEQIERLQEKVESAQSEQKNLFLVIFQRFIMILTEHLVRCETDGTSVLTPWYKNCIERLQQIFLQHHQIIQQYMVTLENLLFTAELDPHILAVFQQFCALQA
Nature of the assay: ITC, m^7GTP binding to CBC with triple mutants of both CBP20 and CBP80. The following applies: 25 °C, pH 7.8, CBP80 Y461A/R610E/H651A + CBP20 Y50A/Y89A/D107R, mean ± SD of 2 experiments.

For the next assay, the target named is T2, CBCmut (Homo sapiens, UniProt P52298, Y50A).
T2 sequence (P52298 1-156 Y50A): T1 sequence (P52298 1-156 Y50A/Y89A/D107R) with A89Y, R107D
T2 sequence (Q09161 20-790 Y461A/R610E/H651A partner): T1 sequence (Q09161 20-790 Y461A/R610E/H651A partner)
Nature of the assay: ITC, m^7GTP binding to CBCmut. Particulars: 25 °C, pH 7.8, m^7GTP titrated to CBCmut, mean ± SD of 2 experiments.

Where a chain is given by its changes, count along the chain named.

CBC-NELF-E 244–380, sequence (P52298 whole entry): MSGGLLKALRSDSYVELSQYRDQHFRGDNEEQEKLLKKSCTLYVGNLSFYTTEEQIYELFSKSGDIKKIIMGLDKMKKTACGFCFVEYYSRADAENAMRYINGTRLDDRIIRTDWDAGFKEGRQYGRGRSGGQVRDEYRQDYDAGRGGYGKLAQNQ
CBC-NELF-E 244–380, sequence (Q09161 20-790 partner): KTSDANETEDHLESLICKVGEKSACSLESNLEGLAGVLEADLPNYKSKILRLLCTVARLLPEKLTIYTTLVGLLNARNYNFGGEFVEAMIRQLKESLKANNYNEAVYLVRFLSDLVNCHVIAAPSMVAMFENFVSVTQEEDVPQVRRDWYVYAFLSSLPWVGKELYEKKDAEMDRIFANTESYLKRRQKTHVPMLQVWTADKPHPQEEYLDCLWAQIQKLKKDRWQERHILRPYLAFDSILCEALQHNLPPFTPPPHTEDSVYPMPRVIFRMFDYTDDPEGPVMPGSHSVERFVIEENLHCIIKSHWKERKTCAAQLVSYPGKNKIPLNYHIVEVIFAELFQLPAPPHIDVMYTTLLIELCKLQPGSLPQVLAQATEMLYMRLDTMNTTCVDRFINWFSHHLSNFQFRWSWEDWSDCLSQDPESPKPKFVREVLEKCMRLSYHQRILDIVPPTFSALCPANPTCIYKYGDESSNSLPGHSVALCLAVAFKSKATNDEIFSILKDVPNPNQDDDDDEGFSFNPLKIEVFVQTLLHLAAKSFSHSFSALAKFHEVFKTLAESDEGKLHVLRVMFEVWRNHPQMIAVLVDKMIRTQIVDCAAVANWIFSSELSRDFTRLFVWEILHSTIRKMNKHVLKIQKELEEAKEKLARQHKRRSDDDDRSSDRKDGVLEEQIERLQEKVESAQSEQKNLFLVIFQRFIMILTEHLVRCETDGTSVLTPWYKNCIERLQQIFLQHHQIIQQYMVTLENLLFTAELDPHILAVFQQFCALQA
CBC-NELF-E 244–380, sequence (P18615 244-380 partner): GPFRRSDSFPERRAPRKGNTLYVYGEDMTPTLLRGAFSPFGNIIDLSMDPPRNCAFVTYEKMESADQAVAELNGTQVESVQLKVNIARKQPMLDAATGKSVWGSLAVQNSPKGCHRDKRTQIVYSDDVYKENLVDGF
Protocol for CBC (6 mutations): (§1) For CBC, a triple mutant in CBP80 (Y461A/R610E/H651A) was combined with various mutations in CBP20 (Y50A, Y50A/Y89A, or Y50A/Y89A/D107R).
(§2) ITC experiments were performed on a MicroCal ITC200 system (Malvern). Proteins were dialyzed overnight in buffer 20 mM HEPES, 120 mM NaCl, 2 mM tris(2-carboxyethyl)phosphine, pH 7.8. Injections of 1.5 µl protein A were added at an interval of 120–180 s into 205 µl of protein B in the cell, with a stirring speed of 800 rpm at 25 °C. The experimental data were analysed with MicroCal ITC Origin and were fitted to a single-site binding equation.
Protocol for CBCmut: as §1, §2

What is called Kd is the free concentration of one partner at which half of the binding sites on the other are occupied at equilibrium, for simple one-to-one binding. With `C[n+]1cn([C@@H]2O[C@H](COP(=O)(O)OP(=O)([O-])OP(=O)(O)O)[C@@H](O)[C@H]2O)c2nc(N)[nH]c(=O)c21` [m^7GTP], the Kd at CBC-NELF-E 244–380 (25 °C, pH 7.8, CBC saturated with 2.2 molar excess of NELF-E 244–380, titrated by m^7GTP, mean ± SD of 3 experiments, SD) was found to be 44 ± 2 nM; on CBC (6 mutations) it was 70000 ± 4000 nM; on CBCmut (SD) it was 95 ± 24 nM. In addition, the “Increase of the affinity of CBC for cap (m^7GTP) by saturating NELF-E” value at CBC-NELF-E 244–380 (compared to m^7GTP binding to CBC alone) is ~ 3 factor. The “K D” value on CBCmut was “as well as wild-type CBC”.

For the origin of these results see article PMC5670239, “Structural basis for mutually exclusive co-transcriptional nuclear cap-binding complexes with either NELF-E or ARS2” (Nature Communications, 2017).
